These results are taken from patent publication US20240043435A1, “TYK-2 INHIBITOR” (BEIGENE, LTD., priority 2020, published 2024).

In the assay the target is T1, TYK2-JH2 (aa 575-869, in-house) protein (Homo sapiens, UniProt P29597).
T1 construct: TYK2-JH2 (aa 575-869, in-house) protein; made in house
T1 sequence (P29597 575-869): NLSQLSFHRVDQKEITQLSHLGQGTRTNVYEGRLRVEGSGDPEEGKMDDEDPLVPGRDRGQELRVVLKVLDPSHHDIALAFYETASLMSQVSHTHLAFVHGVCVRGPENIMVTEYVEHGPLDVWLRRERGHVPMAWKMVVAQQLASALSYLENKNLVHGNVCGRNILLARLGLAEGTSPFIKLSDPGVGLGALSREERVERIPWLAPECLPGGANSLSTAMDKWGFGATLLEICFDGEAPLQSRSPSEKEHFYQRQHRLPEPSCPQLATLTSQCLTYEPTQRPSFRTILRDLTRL
The experiment in a line: TYK2-JH2 biochemical assay (HTRF probe displacement). It is filed as binding. Particulars: Biochemical assay; read-out: TYK2-JH2 IC50. The protocol:
Assay A: TYK2-JH2 Biochemical Assay
Compounds disclosed herein were tested for blocking of TYK2-JH2 (aa 575-869, in-house) protein with its probe in an assay based on Homogeneous Time Resolved Fluorescence. Compound dilution is done according to the following protocol: (1) Prepare 500× compounds solution in DMSO from 500 uM by 5-fold dilution, total 10 doses were included; (2) Prepare 10× compounds solution in an assay buffer containing 20 mM HEPES, pH 7.5, 10 mM MgCl2, 0.005% BSA, 2 mM DTT, 0.015% Brij-35 by transferring 1 μl serial 500× stock solution into 49 μl assay buffer. […] of 0.2 nM recombinant TYK2-JH2 protein was pre-incubated with 1 μl of 10× serial dilution of compounds at room temperature for 0.5 hour. […] The HTRF signals (ex337 nm, em620 nm/665 nm) were read on BMG PHERAstar FS instrument. The inhibition percentage of TYK2 interaction with its probe in presence of increasing concentrations of compounds was calculated based on the ratio of fluorescence at 615 nm to that at 665 nm. The IC50 for each compound was derived from fitting the data to the four-parameter logistic equation by Dotmatics.
(TR-FRET usually uses a lanthanide donor and a delayed reading to cut background.)
In the case of `CC(=O)Nc1cc(Nc2cc(O[C@H]3C[C@H](O)C3)cc(S(C)(=O)=O)c2)c(-c2ccc(C(F)(F)F)cn2)cn1` [Example F5, N-(4′-((3-((trans)-3-hydroxycyclobutoxy)-5-(methylsulfonyl)phenyl)amino)-5-(trifluoromethyl)-[2,3′-bipyridin]-6′-yl)acetamide], the IC50 was 0.061 nM. In the case of `CC(=O)Nc1cc(Nc2cc(N3CCC(C)(O)C3)cc(S(C)(=O)=O)n2)c(-c2ccc3c(n2)OCC(C)(C)O3)cn1` (stereo not shown) [Example Q57, N-(5-(2,2-dimethyl-2,3-dihydro-[1,4]dioxino[2,3-b]pyridin-6-yl)-4-((4-(3-hydroxy-3-methylpyrrolidin-1-yl)-6-(methylsulfonyl)pyridin-2-yl)amino)pyridin-2-yl) acetamide] it was 0.031 nM; in that of `CC(=O)Nc1cc(Nc2cc(OCC3CC3)cc(S(C)(=O)=O)c2)c(-c2ccc(C(F)(F)F)cn2)cn1` [Example F6, N-(4′-((3-(cyclopropylmethoxy)-5-(methylsulfonyl)phenyl)amino)-5-(trifluoromethyl)-[2,3′-bipyridin]-6′-yl)acetamide], 0.532 nM.

For the compound `CC(=O)Nc1cc(Nc2cccc(S(C)(=O)=O)n2)c(-c2cnn(C)c2)cn1` [Example A8, N-(5-(1-methyl-1H-pyrazol-4-yl)-4-((6-(methylsulfonyl)pyridin-2-yl)amino)pyridin-2-yl)acetamide], the half-maximal inhibitory concentration (IC50) is 0.26 nM. In the case of `CC(=O)Nc1cc(Nc2nc(S(C)(=O)=O)ccc2OC(C)C)c(-c2ccn(C)n2)cn1` [Example J49, N-(4-((3-isopropoxy-6-(methylsulfonyl)pyridin-2-yl)amino)-5-(1-methyl-1H-pyrazol-3-yl)pyridin-2-yl)acetamide] it was 0.13 nM; in that of `CC(=O)Nc1cc(Nc2cc(C(F)(F)F)cc(S(C)(=O)=O)c2)c(-c2ccn(C)n2)cn1` [Example J33, N-(5-(1-methyl-1H-pyrazol-3-yl)-4-((3-(methylsulfonyl)-5-(trifluoromethyl)phenyl)amino)pyridin-2-yl)acetamide], 0.12 nM. In the case of `CC(=O)Nc1cc(Nc2cc(N3CCC(C)(O)CC3)cc(S(C)(=O)=O)n2)c(-c2ccc3c(n2)OCC(C)(C)O3)cn1` [Example Q55, N-(5-(2,2-dimethyl-2,3-dihydro-[1,4]dioxino[2,3-b]pyridin-6-yl)-4-((4-(4-hydroxy-4-methylpiperidin-1-yl)-6-(methylsulfonyl)pyridin-2-yl)amino)pyridin-2-yl)acetamide] it was 0.019 nM.

What is called IC50 is the concentration needed to halve the response being measured.
